Holding throughout (assay type): cell-based
Common to all, as to settings: Table A; BaF3 cells, 3 days

In assay [1] the target is T1, EGFR wt (Homo sapiens, UniProt P00533).
T1 construct: expressed in transfected cells; host or cells: BaF3 (murine pro-B) cells, retroviral transduction with pMXs-IRES-Blasticidin
Put plainly: BaF3 cell proliferation assay (CellTiterGlo), EGFR wt. Here is the method: (§1) Retroviral Production: EGFR mutants were subcloned into pMXs-IRES-Blasticidin (RTV-016, Cell Biolabs, San Diego, CA). Retroviral expression vector retrovirus was produced by transient transfection of HEK 293T cells with the retroviral EGFR mutant expression vector pMXs-IRES-Blasticidin (RTV-016, Cell Biolabs), pCMV-Gag-Pol vector and pCMV-VSV-G-Envelope vector. Briefly, HEK 293T/17 cells were plated in 100 mm collagen coated plate (354450, Corning Life Sciences, Tewksbury, MA) (4×10^5 per plate) and incubated overnight. The next day, retroviral plasmids (3 ng of EGFR mutant, 1.0 ng of pCMV-Gag-Pol and 0.5 ng pCMV-VSV-G) were mixed in 500 n1 of Optimem (31985, Life Technologies). The mixture was incubated at room temperature for 5 min and then added to Optimem containing transfection reagent Lipofectamine (11668, Invitrogen) and incubated for 20 minutes. Mixture was then added dropwise to HEK 293T cells. The next day the medium was replaced with fresh culture medium and retrovirus was harvested @ 24 and 48 hrs.
(§2) Generation of EGFR mutant stable cell lines: BaF3 cells (1.5E5 cells) were infected with 1 ml of viral supernatant supplemented with 8 ng/ml polybrene by centrifuging for 30 min at 1000 rpm. Cells were placed in a 37° C. incubator overnight. Cells were then spun for 5 minutes to pellet the cells. Supernatant was removed and cells re-infected a fresh 1 ml of viral supernatant supplemented with 8 ng/ml polybrene by centrifuging for 30 min at 1000 rpm. Cells were placed in 37° C. incubator overnight. Cells were then maintained in RPMI containing 10% Heat Inactivated FBS, 2% L-glutamine containing 10 ng/ml IL-3. After 48 hours cells were selected for retroviral infection in 10 […] for one week. Blasticidin resistant populations were washed twice in phosphate buffered saline before plating in media lacking IL-3 to select for IL-3 independent growth.
(§3) Assay for cell proliferation: BaF3 cell lines were resuspended at 1.3E5 c/ml in RPMI containing 10% Heat Inactivated FBS, 2% L-glutamine and 1% Pen/Strep and dispensed in triplicate (17.5E4 c/well) into 96 well plates. To determine the effect of drug on cell proliferation, cells incubated for 3 days in the presence of vehicle control or test drug at varying concentrations. Inhibition of cell growth was determined by luminescent quantification of intracellular ATP content using CellTiterGlo (Promega), according to the protocol provided by the manufacturer. Comparison of cell number on day 0 versus 72 hours post drug treatment was used to plot dose-response curves. The number of viable cells was determined and normalized to vehicle-treated controls. Inhibition of proliferation, relative to vehicle-treated controls was expressed as a fraction of 1 and graphed using PRISM® software (Graphpad Software, San Diego, CA). EC50 values were determined with the same application.
Background: In ATP-based viability assays light output follows the ATP content of the culture.

The target of assay [2] is T2, HER2 YVMA (Homo sapiens, UniProt P04626, INS775YVMA).
T2 construct: expressed in transfected cells; host or cells: BaF3 (murine pro-B) cells
T2 sequence (P04626 with tags, fused parts or gaps INS775YVMA): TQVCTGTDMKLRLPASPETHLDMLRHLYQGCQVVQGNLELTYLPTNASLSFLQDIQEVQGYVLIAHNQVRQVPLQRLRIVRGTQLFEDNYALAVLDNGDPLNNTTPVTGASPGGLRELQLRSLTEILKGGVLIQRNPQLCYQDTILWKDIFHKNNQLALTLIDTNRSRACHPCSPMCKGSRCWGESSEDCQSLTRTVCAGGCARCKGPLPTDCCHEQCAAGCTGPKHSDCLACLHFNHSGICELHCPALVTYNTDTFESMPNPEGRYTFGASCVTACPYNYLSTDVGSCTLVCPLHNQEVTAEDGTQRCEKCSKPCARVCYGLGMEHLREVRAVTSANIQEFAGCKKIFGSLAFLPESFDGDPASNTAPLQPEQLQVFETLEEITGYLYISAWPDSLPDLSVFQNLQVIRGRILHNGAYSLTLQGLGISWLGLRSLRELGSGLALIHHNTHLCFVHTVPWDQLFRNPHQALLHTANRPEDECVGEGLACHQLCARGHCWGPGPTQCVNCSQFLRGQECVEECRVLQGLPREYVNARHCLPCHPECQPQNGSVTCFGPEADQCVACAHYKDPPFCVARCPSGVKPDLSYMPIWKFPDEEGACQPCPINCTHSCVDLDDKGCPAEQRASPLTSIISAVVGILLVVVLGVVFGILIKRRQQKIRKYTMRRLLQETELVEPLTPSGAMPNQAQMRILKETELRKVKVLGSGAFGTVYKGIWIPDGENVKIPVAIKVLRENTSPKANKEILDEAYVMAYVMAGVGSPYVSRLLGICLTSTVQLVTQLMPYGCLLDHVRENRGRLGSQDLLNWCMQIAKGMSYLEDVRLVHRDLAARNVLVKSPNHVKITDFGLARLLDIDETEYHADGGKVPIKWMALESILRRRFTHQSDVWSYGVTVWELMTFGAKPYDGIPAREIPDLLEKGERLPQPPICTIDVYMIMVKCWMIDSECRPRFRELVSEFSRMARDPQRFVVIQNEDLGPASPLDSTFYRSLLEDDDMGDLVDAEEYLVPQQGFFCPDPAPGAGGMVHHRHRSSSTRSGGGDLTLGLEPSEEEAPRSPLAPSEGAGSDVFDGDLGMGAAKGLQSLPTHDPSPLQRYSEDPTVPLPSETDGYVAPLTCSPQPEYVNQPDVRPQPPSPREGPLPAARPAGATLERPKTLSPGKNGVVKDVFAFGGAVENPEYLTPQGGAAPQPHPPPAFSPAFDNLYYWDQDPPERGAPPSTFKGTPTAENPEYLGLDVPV
Put plainly: BaF3 cell proliferation assay (CellTiterGlo), HER2 YVMA.

The target in assay [3] is T3, EGFR V3 (Homo sapiens, UniProt P00533, DELINS30-297G).
T3 construct: expressed in transfected cells; host or cells: BaF3 (murine pro-B) cells, retroviral transduction with pMXs-IRES-Blasticidin
T3 sequence (P00533 with tags, fused parts or gaps DELINS30-297G): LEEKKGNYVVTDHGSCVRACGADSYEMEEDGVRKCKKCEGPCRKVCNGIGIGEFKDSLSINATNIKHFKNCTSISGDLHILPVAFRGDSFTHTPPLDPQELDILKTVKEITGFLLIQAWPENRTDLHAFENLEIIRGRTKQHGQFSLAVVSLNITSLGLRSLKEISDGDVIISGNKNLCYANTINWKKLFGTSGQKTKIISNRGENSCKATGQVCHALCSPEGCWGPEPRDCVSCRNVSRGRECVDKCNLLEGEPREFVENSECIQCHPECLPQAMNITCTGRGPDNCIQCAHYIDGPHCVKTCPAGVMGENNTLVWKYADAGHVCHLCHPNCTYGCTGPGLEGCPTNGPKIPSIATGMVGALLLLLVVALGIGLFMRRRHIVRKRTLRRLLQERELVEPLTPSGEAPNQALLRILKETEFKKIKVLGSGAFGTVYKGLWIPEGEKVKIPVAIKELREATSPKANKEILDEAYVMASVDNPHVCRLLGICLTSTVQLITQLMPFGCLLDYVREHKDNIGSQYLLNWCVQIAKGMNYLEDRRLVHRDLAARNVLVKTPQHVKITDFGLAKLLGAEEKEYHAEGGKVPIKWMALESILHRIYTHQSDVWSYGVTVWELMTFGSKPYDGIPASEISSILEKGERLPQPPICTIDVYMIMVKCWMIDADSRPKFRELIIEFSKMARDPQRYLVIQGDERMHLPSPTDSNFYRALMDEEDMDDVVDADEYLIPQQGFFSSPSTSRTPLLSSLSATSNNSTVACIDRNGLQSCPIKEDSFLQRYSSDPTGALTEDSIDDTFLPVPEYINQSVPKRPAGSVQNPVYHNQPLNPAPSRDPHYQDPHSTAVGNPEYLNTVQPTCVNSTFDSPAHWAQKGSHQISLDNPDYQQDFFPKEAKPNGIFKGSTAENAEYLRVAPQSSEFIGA
Description: BaF3 cell proliferation assay (CellTiterGlo), EGFR V3. How it is done: as §1, §2, §3

T1 sequence (P00533 25-1210): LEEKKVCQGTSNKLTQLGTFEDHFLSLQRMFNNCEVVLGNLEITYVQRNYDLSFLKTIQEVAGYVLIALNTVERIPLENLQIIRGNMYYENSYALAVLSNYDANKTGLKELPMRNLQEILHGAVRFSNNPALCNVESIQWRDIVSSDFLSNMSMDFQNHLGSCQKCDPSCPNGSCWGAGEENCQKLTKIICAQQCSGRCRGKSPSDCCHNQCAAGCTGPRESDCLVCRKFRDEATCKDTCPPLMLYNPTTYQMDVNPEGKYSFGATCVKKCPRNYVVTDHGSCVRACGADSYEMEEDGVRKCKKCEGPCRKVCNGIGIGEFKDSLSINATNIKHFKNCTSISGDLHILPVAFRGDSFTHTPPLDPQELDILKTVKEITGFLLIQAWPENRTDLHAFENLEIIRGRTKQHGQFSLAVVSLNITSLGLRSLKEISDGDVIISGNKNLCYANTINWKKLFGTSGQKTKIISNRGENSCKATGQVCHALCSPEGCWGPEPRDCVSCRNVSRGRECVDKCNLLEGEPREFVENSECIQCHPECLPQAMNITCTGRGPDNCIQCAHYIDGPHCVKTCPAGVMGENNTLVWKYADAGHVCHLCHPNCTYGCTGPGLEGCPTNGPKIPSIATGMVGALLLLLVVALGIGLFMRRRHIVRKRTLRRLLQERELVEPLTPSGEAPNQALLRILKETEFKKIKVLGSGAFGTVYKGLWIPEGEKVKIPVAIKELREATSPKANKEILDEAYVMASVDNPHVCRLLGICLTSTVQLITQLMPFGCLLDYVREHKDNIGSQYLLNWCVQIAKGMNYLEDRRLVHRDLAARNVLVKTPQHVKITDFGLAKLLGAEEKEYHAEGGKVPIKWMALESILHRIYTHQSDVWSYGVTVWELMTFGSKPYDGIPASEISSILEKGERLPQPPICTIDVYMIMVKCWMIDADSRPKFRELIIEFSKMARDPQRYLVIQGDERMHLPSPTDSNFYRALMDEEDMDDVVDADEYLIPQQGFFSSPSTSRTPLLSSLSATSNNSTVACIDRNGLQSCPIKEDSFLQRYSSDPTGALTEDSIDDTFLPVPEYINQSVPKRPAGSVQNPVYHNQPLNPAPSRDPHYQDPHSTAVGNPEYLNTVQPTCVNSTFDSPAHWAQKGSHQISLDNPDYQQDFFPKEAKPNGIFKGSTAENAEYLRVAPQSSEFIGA

Consider `COC(=O)Nc1cc2c(Nc3cccc(Cl)c3F)ncnc2cc1C#CC1(C)CCN(C)C1` (stereo not drawn) [Compound 43, Methyl (4-((3-chloro-2-fluorophenyl)amino)-7-((1,3-dimethylpyrrolidin-3-yl)ethynyl)quinazolin-6-yl)carbamate], for which the figures for the IC50 in assay [1], in assay [2] and in assay [3] were at most 50 nM, over 500 nM and over 500 nM, respectively.
With `C=CC(=O)Nc1cc2c(Nc3ccc(Oc4ccccc4)cc3)ncnc2cc1C#C[C@@]12C[C@@H]1CN(C)C2` [Compound 40, N-(7-(((1R,5S)-3-methyl-3-azabicyclo[3.1.0]hexan-1-yl)ethynyl)-4-((4-phenoxyphenyl)amino)quinazolin-6-yl)acrylamide], the IC50 in assay [1] is 100 to 500 nM; in assay [2], 100 to 500 nM; in assay [3], at most 50 nM.
`C=CC(=O)Nc1cc2c(Nc3cccc(Cl)c3F)ncnc2cc1C#C[C@]1(OC)CCN(C)C1` [Compound 36, (R)—N-(4-((3-chloro-2-fluorophenyl)amino)-7-((3-methoxy-1-methylpyrrolidin-3-yl)ethynyl)quinazolin-6-yl)acrylamide]: the IC50 in assay [1], in assay [2] and in assay [3] was at most 50 nM throughout.
In the case of `C=CC(=O)Nc1cc2c(Nc3ccc(Cl)c(Cl)c3F)ncnc2cc1C#C[C@]12C[C@H]1CN(C)C2` [Compound 33, N-(4-((3,4-dichloro-2-fluorophenyl)amino)-7-(((1S,5R)-3-methyl-3-azabicyclo[3.1.0]hexan-1-yl)ethynyl)quinazolin-6-yl)acrylamide], the IC50 in assay [1], in assay [2] and in assay [3] was at most 50 nM each time.
As to `C=CC(=O)Nc1cc2c(Nc3ccc(Cl)c(Cl)c3F)ncnc2cc1C#C[C@@]12C[C@@H]1CN(C)C2` [Compound 34], the 50% inhibitory concentration (IC50) in assay [1], in assay [2] and in assay [3] was at most 50 nM in each case.
Turning to `CC(C)/C=C/C(=O)Nc1cc2c(Nc3cccc(Cl)c3F)ncnc2cc1C#C[C@@]1(C)CCN(C)C1` [Compound 39, (E)-N-[4-(3-chloro-2-fluoro-anilino)-7-[2-[(3R)-1,3-dimethylpyrrolidin-3-yl]ethynyl]quinazolin-6-yl]-4-methyl-pent-2-enamide], the figures for the IC50 in assay [1], in assay [2] and in assay [3] were 50 to 100 nM, over 500 nM and over 500 nM, respectively.
`C=CC(=O)Nc1cc2c(Nc3cccc(Cl)c3F)ncnc2cc1C#CC1(C)CN(C)CCO1` (stereo not drawn) [Compound 32, N-(4-((3-chloro-2-fluorophenyl)amino)-7-((2,4-dimethylmorpholin-2-yl)ethynyl)quinazolin-6-yl)acrylamide]: the IC50 in assay [1] was over 500 nM; in assay [2] it was over 500 nM; in assay [3], at most 50 nM.
Regarding `C=CC(=O)Nc1cc2c(Nc3cc(Cl)ccc3F)ncnc2cc1C#CC1(C)COC1` [Compound 29, N-(4-((5-chloro-2-fluorophenyl)amino)-7-((3-methyloxetan-3-yl)ethynyl)quinazolin-6-yl)acrylamide], the IC50 in assay [1] was 100 to 500 nM; in assay [2], over 500 nM; in assay [3], 100 to 500 nM.
Regarding `C=CC(=O)Nc1cc2c(Nc3cccc(Cl)c3F)ncnc2cc1C#C[C@@]1(OC)CCN(C)C1` [Compound 35, (S)—N-(4-((3-chloro-2-fluorophenyl)amino)-7-((3-methoxy-1-methylpyrrolidin-3-yl)ethynyl)quinazolin-6-yl)acrylamide], the 50% inhibitory concentration (IC50) in assay [1], in assay [2] and in assay [3] was at most 50 nM throughout.
Turning to `C=C(CO)C(=O)Nc1cc2c(Nc3cccc(Cl)c3F)ncnc2cc1C#C[C@@]1(C)CCN(C)C1` [Compound 31, (R)—N-(4-((3-chloro-2-fluorophenyl)amino)-7-((1,3-dimethylpyrrolidin-3-yl)ethynyl)quinazolin-6-yl)-2-(hydroxymethyl)acrylamide], the results for the IC50 in assay [1], in assay [2] and in assay [3] were at most 50 nM, 100 to 500 nM and 50 to 100 nM, respectively.

A word on the IC50: it is the concentration that inhibits the measured activity by half. A lower IC50 goes with greater potency in that assay.

The values are drawn from patent publication US12435046B2, “Alkynyl quinazoline compounds” (Black Diamond Therapeutics, Inc., priority 2019, dated 2025).
